# Test results: PubChem BioAssay AID1963970 (Molecular Pharmacology Branch, DTP, NCI, 2024)
# Tested on: 931267-113-T-J1-PDC multicell spheroid viability
# Test: Anticancer human tumor 931267-113-T-J1-PDC patient-derived colon adenocarcinoma cell line growth inhibition [PI3K]
# Conditions: for IC50: curve of first compound; for viability, T/C: stronger effect = lower value
# Excerpt: Combinatorial screen of targeted agents with the PI3K inhibitors inavolisib, alpelisib, duvelisib, and copanlisib in multi-cell type tumor spheroids
# A high-throughput screen of multi-cell type tumor spheroids was designed to identify active combinations of targeted small molecules and PI3K pathway inhibitors. Complex spheroids include a stromal component modeled by human endothelial cells (HUVEC) and fibroblasts modeled by human mesenchymal stem cells (MSCs). The concentration ranges selected for each drug and investigational agent were based upon clinically achievable concentrations if the clinical Cmax of the agent was known.
# Compounds. The drugs and investigational agents: inavolisib (NSC800729), alpelisib (NSC765974), duvelisib (NSC772469), copanlisib (NSC816437), ipatasertib (NSC767898), afuresertib (NSC778305), talazoparib (NSC767125), sapanisertib (NSC764658), selumetinib (NSC741078), tovorafenib (DAY101, NSC766906), vemurafenib (NSC761431), ravoxertinib (NSC781343), sotorasib (NSC818433), MRTX1133 (NSC 836407), abemaciclib (NSC 768073), palbociclib (NSC758247), venetoclax (NSC 766270), SY5609 (NSC837396), enzalutamide (NSC755605), and darolutamide (NSC825331), were obtained from the National Cancer Institute (NCI) Developmental Therapeutics Program Chemical Repository. The FDA-approved anticancer drug set is available from the NCI Developmental Therapeutics Program. […] The stock solutions were prepared in dimethyl sulfoxide (DMSO, Sigma-Aldrich, St. Louis, MO, cat. D2650) at 800-fold the tested concentration and stored at -70 degrees C prior to their use. All drugs and investigational agents were tested over a range starting from a high concentration at or near the clinical Cmax and decreasing in half-log increments. If the clinical Cmax for an agent had not been determined, the highest concentration tested was 10 microM.
# Cell Culture. All cells were maintained in an incubator at 37 degrees C and 5% CO2 with 95% humidity. The PDC lines were cultured according to standard operating procedures established by the NCI PDMR (https://pdmr.cancer.gov/sops/default.htm). All PDCs were thawed and cultured in Matrigel-coated flasks prepared with a working solution of 1X Ham's F-12 nutrient mix, without supplementation (Invitrogen, Waltham, MA, cat. 11765054), 100 U/mL penicillin-streptomycin (Invitrogen, cat. 15140122), and 2.5% Matrigel (Corning Inc., Corning, NY, cat. 354248) for the first three passages. The 354836-022-R-J1-PDC, 475296-252-R-J1-PDC, and 997726-040-R-J2-PDC lines were cultured in 6A media, which includes advanced DMEM/F-12 (Thermo Fisher Scientific, cat. 12634028), 10 mM HEPES (Thermo Fisher Scientific, cat. 15630080), 1X GlutaMAX supplement (Thermo Fisher Scientific, cat. 35050061), 0.1 mg/mL primocin (InvivoGen, San Diego, CA, cat. ant-pm-2), 10% defined fetal bovine serum, heat inactivated (HyClone Laboratories Inc., Logan, UT, cat. SH30070.03HI), 50% L-WRN conditioned media (ATCC, cat. CRL-3276), 1.25 mM N-Acetyl-L-cysteine (Sigma-Aldrich, cat. A9165), 10 mM nicotinamide (Sigma-Aldrich, cat. N0636), 1X B-27 supplement (Thermo Fisher Scientific, cat. 17504044), 1X N-2 supplement (Thermo Fisher Scientific, cat. 17502048), and 10 microM Y-27632 dihydrochloride (Tocris Bioscience, Bristol, United Kingdom, cat. 1254). The 624824-186-R-J2-PDC line was cultured in 6C/Colon 1B media, which includes all 6A media components plus 50 ng/mL human EGF recombinant protein (Thermo Fisher Scientific, cat. PHG0311). […]
# 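Note: viability read 7 days after compound addition.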
smiles,measurement,setting,value
Cn1cnc2c(F)c(Nc3ccc(Br)cc3Cl)c(C(=O)NOCCO)cc21 + CC(Nc1ccc2c(c1)OCCn1cc(N3C(=O)OCC3C(F)F)nc1-2)C(N)=O,IC50,second compound 0.00316 µM,0.119 µM
same,IC50,second compound 0.01 µM,0.0997 µM
same,IC50,second compound 0.0316 µM,0.0801 µM
same,IC50,second compound 0.1 µM,0.0546 µM
same,IC50,second compound 0.316 µM,0.0364 µM
same,IC50,second compound 1 µM,0.0198 µM
same,"viability, T/C","second compound 0.00316 µM, first compound 0.00949 µM",69.8%
same,"viability, T/C","second compound 0.00316 µM, first compound 0.03 µM",71.2%
same,"viability, T/C","second compound 0.00316 µM, first compound 0.0949 µM",52.1%
same,"viability, T/C","second compound 0.00316 µM, first compound 0.3 µM",33.3%
same,"viability, T/C","second compound 0.00316 µM, first compound 0.949 µM",21.4%
same,"viability, T/C","second compound 0.00316 µM, first compound 3 µM",11.4%
same,"viability, T/C","second compound 0.01 µM, first compound 0.00949 µM",91.1%
same,"viability, T/C","second compound 0.01 µM, first compound 0.03 µM",74.7%
same,"viability, T/C","second compound 0.01 µM, first compound 0.0949 µM",50%
same,"viability, T/C","second compound 0.01 µM, first compound 0.3 µM",31%
same,"viability, T/C","second compound 0.01 µM, first compound 0.949 µM",15.3%
same,"viability, T/C","second compound 0.01 µM, first compound 3 µM",10.8%
same,"viability, T/C","second compound 0.0316 µM, first compound 0.00949 µM",89.6%
same,"viability, T/C","second compound 0.0316 µM, first compound 0.03 µM",69.5%
same,"viability, T/C","second compound 0.0316 µM, first compound 0.0949 µM",47.9%
same,"viability, T/C","second compound 0.0316 µM, first compound 0.3 µM",25.2%
same,"viability, T/C","second compound 0.0316 µM, first compound 0.949 µM",15.2%
same,"viability, T/C","second compound 0.0316 µM, first compound 3 µM",9.45%
same,"viability, T/C","second compound 0.1 µM, first compound 0.00949 µM",75.9%
same,"viability, T/C","second compound 0.1 µM, first compound 0.03 µM",61.8%
same,"viability, T/C","second compound 0.1 µM, first compound 0.0949 µM",39.3%
same,"viability, T/C","second compound 0.1 µM, first compound 0.3 µM",21.3%
same,"viability, T/C","second compound 0.1 µM, first compound 0.949 µM",15.2%
same,"viability, T/C","second compound 0.1 µM, first compound 3 µM",8.34%
same,"viability, T/C","second compound 0.316 µM, first compound 0.00949 µM",78.3%
same,"viability, T/C","second compound 0.316 µM, first compound 0.03 µM",53.9%
same,"viability, T/C","second compound 0.316 µM, first compound 0.0949 µM",31.3%
same,"viability, T/C","second compound 0.316 µM, first compound 0.3 µM",17.2%
same,"viability, T/C","second compound 0.316 µM, first compound 0.949 µM",10.9%
same,"viability, T/C","second compound 0.316 µM, first compound 3 µM",6.16%
same,"viability, T/C","second compound 1 µM, first compound 0.00949 µM",63.1%
same,"viability, T/C","second compound 1 µM, first compound 0.03 µM",42%
same,"viability, T/C","second compound 1 µM, first compound 0.0949 µM",28.7%
same,"viability, T/C","second compound 1 µM, first compound 0.3 µM",15.9%
same,"viability, T/C","second compound 1 µM, first compound 0.949 µM",10.3%
same,"viability, T/C","second compound 1 µM, first compound 3 µM",4.28%
